Test results reported in PMC4540177 (Bioorganic & medicinal chemistry letters, 2013).

Legend:
Mouse brain penetration = assay type: in vivo, C57Bl6 mice
Rat pharmacokinetics = assay type: in vivo, Sprague-Dawley rats

Row | SMILES | brain penetration (in words) (Mouse brain penetration) | half live (in words) (Rat pharmacokinetics; rat) | oral exposure (in words) (Rat pharmacokinetics; rat) | in vivo properties (in words) (Rat pharmacokinetics; rat pk)
1 | Cc1ncn(-c2ccc(Nc3cc(-c4nocc4-c4cnn(C)c4)ccn3)cc2)n1 [Compound 27] | poor brain penetration | short half live | good oral exposure | 
2 | Cc1ncn(-c2ccc(Nc3cc(-c4nocc4-c4cn[nH]c4C)ccn3)cc2)n1 [Compound 28] |  |  |  | poor in vivo properties
